Results reported in patent US20240424115A1, “LONG-ACTING INTERLEUKIN-15 RECEPTOR AGONISTS AND RELATED IMMUNOTHERAPEUTIC COMPOSITIONS AND METHODS” (Nektar Therapeutics, priority 2017, published 2024).
“Also recorded” adds a separate entry of the source.

What was measured:
[1] = system: human PBMCs; assay: HuPBMC-pStat5 assay (flow cytometry, lymphocyte subpopulations); type: cell-based; settings: for EC50 (ng/ml)-% pSTAT5 CD3 donor1 / EC50 (ng/ml)-% pSTAT5 CD3 donor2 / EC50 (ng/ml)-MFI CD3 donor1 / EC50 (ng/ml)-MFI CD3 donor2: CD3 cells; for EC50 (ng/ml)-% pSTAT5 CD3 donor1: donor1, 20 min stimulation; for EC50 (ng/ml)-% pSTAT5 CD3 donor2: donor2, 20 min stimulation; for EC50 (ng/ml)-% pSTAT5 Treg donor1 / EC50 (ng/ml)-% pSTAT5 Treg donor2 / EC50 (ng/ml)-MFI Treg donor1 / EC50 (ng/ml)-MFI Treg donor2: CD4-Treg cells; for EC50 (ng/ml)-% pSTAT5 CD4 donor1 / EC50 (ng/ml)-% pSTAT5 CD4 donor2 / EC50 (ng/ml)-MFI CD4 donor1 / EC50 (ng/ml)-MFI CD4 donor2: CD4 cells; for EC50 (ng/ml)-% pSTAT5 CD8 donor1 / EC50 (ng/ml)-% pSTAT5 CD8 donor2 / EC50 (ng/ml)-MFI CD8 donor1 / EC50 (ng/ml)-MFI CD8 donor2: CD8 cells; for EC50 (ng/ml)-% pSTAT5 CD56bright donor1 / EC50 (ng/ml)-% pSTAT5 CD56bright donor2 / EC50 (ng/ml)-MFI CD56bright donor1 / EC50 (ng/ml)-MFI CD56bright donor2: CD56bright cells; for EC50 (ng/ml)-% pSTAT5 CD56dim donor1 / EC50 (ng/ml)-% pSTAT5 CD56dim donor2 / EC50 (ng/ml)-MFI CD56dim donor1 / EC50 (ng/ml)-MFI CD56dim donor2: CD56dim cells; for EC50 (ng/ml) pSTAT5 CD56bright NK: Table 3, CD56bright NK cells; for EC50 (ng/ml)-% pSTAT5 CD3 / EC50 (ng/ml)-% pSTAT5 CD4 / EC50 (ng/ml)-% pSTAT5 CD8 / EC50 (ng/ml)-% pSTAT5 CD56bright / EC50 (ng/ml)-% pSTAT5 CD56dim / EC50 (ng/ml)-% pSTAT5 Treg: Table 7 Summary Table; for EC50 (ng/ml)-MFI CD3 donor1 / EC50 (ng/ml)-MFI CD3 donor2 / EC50 (ng/ml)-MFI Treg donor1 / EC50 (ng/ml)-MFI Treg donor2 / EC50 (ng/ml)-MFI CD4 donor1 / EC50 (ng/ml)-MFI CD4 donor2 / EC50 (ng/ml)-MFI CD8 donor1 / EC50 (ng/ml)-MFI CD8 donor2 / EC50 (ng/ml)-MFI CD56bright donor1 / EC50 (ng/ml)-MFI CD56bright donor2 / EC50 (ng/ml)-MFI CD56dim donor1 / EC50 (ng/ml)-MFI CD56dim donor2: pSTAT5 MFI
Experimental: The potency of IL-15 or long acting IL-15 R agonists on various human lymphocyte subpopulations was determined by phospho-STAT5 (Y694) dose response assay. Frozen human PBMCs from multiple donors were supplied by AllCells. 1×10^6 cells/100ul were cultured in complete RPMI media for 2 hours and then incubated with the indicated concentrations (10,000ng/ml-0.001ng/ml serial dilutions) of IL-15 or conjugates for 20minutes at 37c. The cells were then fixed (using BD Cytofix) and permeabilized (using 100% pre-chilled methanol) and stained with antibodies for CD3, CD4, CD8, CD4-Tregs (CD4+CD25+Foxp3+), CD56 and phosphorylated STAT5 (Y694) before analysis by flow cytometry. Concentration-response relationships were used to calculate the EC50 values.
Assessment of in-vitro activity of exemplary long-acting IL-15 receptor agonists (e.g., Conjugates 1, 3 and 5) was carried out by investigating signaling in NK cell subsets of human PBMCs as shown in FIGS. 10A (CD56bright cells) and 10B (CD56dim cells). STAT5 phosphorylation was evaluated as previously described for assessing IL-15 signaling activity of the long acting IL-15 receptor agonists.
A second study was conducted to investigate/compare the pStat5 response of human PBMCs obtained from two donors (CD3, CD4, CD8, CD56 (bright and dim) and CD4-Tregs (CD25+Foxp3+)) to IL-15, Conjugate 1 and Conjugate 5. An […] dose response was examined using a 10-fold dilution with a dose range of 0.001-10000 ng/ml and a 20 min stimulation. Each of the test articles was diluted in IL-15 buffer+0.1% BSA.
Assessment of in vitro activity of Conjugate 1 was carried out by investigating NK and CD8 JAK/STAT signaling after treatment of human PBMCs with IL-15 or Conjugate 1 at a dose range of 0.001-10000 ng/ml. STAT5 phosphorylation was assessed as previously described.

[2] = system: CD4, CD8, and NK cells; assay: In vivo IL-15 signaling (STAT5 phosphorylation in lymphocytes) in mice
Description: Conventional approaches, such as those involving radiolabeling a compound, administering the compound in vivo, and determining its clearance, can be used to assess whether a compound proposed to be a long-acting, IL-15 R agonist is “long-acting” (i.e., has a clearance that is longer than that of IL-15 administered in the same in vivo system). For the purposes herein, the long acting nature of a long-acting IL-15 R agonist may be, and is typically determined using flow cytometry to measure STAT5 phosphorylation in lymphocytes at various time points after administration of the agonist to be evaluated in mice. As a reference, the signal is lost by around 24 hours with IL-15, but is sustained for a period greater than that for a long-acting IL-15 agonist.
Mice were dosed as described in Example 6 above to assess in-vivo signaling as assessed by degree of STAT5 phosphorylation. Degree of STAT5 phosphorylation in various lymphocytes (CD4, CD8, and NK cells) was assessed by staining whole blood for leukocyte surface markers and pSTAT5, followed by measurement by flow cytometry. Results are shown in FIGS. 8A and 8 B for IL-15 and for Conjugate 2, respectively.
[PK methods previously described herein].
STAT5 phosphorylation in CD4 T cells was determined by using a CD3+CD4+CD8-pSTAT5+ marker combination. FIG. 43 is a plot of pSTAT5 phosphorylation percent positivity within CD4 T cells over time (at 0.25, 1, 6, 24, 48, 72, 96 and 120 hours post administration) at a dose of 0.03 mg/kg (blue, solid squares) or 0.3 mg/kg (orange, solid circles). The vehicle over time (black) and pre-dose (open circles) levels are also shown.

[3] = Single dose PK study in mice (plasma concentration)
Experimental: C57BL/6 mice (n=3/group) were administered a single intravenous dose of IL-15 (control) at 0.3 mg/kg) or of Conjugate 2 at a dose of 0.3 mg/kg. Following administration, blood samples were collected at various time points post administration (24 hours, 48 hours, 78 hours, 96 hours). […] Finally, at each time point, plasma concentration of drug was determined.
For PK analysis, Conjugate 1 was administered as a single intravenous dose at 0.3 mg/kg in balb/c mice (n=3). Following administration, mice were humanely sacrificed and plasma was collected 24, 48, 72, 96, 120 and 144 hours post treatment. From a separate study, mice were administered a single intravenous dose of IL-15 (0.5 mg/kg). Samples from these mice were collected at the indicated time points within 6 hours of treatment.
Balb/c mice (n=3/group) were administered a single intravenous dose of IL-15 (500 ug/kg) or of Conjugate 1 at 10, 30, 100, 300 and 1000 μg/kg. Blood samples were collected at the indicated time points post administration (conjugate 1:24, 48, 72, 96, 120, 144, 240 hours; IL-15 control: 0.03, 0.08, 0.25, 0.5, 1, 2, 4, 6, 8, hours) and plasma concentration of drug was determined.

[4] = balb/c mice, single i.v., Conjugate 1 0.3 mg/kg, IL-15 0.5 mg/kg (Example 16)

IL-15: recombinant human IL-15 from E. coli, SEQ ID NO: 1, non-glycosylated, 12.9 kDa; unconjugated comparator
EC50 (ng/ml)-% pSTAT5 CD3 donor1 [1]: 0.17 ng/ml | EC50 (ng/ml)-% pSTAT5 CD3 donor2 [1]: 0.17 ng/ml | EC50 (ng/ml)-% pSTAT5 Treg donor1 [1]: 0.08 ng/ml | EC50 (ng/ml)-% pSTAT5 Treg donor2 [1]: 0.084 ng/ml | EC50 (ng/ml)-% pSTAT5 CD4 donor1 [1]: 0.177 ng/ml | EC50 (ng/ml)-% pSTAT5 CD4 donor2 [1]: 0.20 ng/ml | EC50 (ng/ml)-% pSTAT5 CD8 donor1 [1]: 0.17 ng/ml | EC50 (ng/ml)-% pSTAT5 CD8 donor2 [1]: 0.15 ng/ml | EC50 (ng/ml)-% pSTAT5 CD56bright donor1 [1]: 0.11 ng/ml | EC50 (ng/ml)-% pSTAT5 CD56bright donor2 [1]: 0.19 ng/ml | EC50 (ng/ml)-% pSTAT5 CD56dim donor1 [1]: 0.26 ng/ml | EC50 (ng/ml)-% pSTAT5 CD56dim donor2 [1]: 0.54 ng/ml | EC50 (ng/ml) pSTAT5 CD56bright NK [1]: 0.4 ng/ml | EC50 (ng/ml)-% pSTAT5 CD3 [1]: 0.17 ng/ml | EC50 (ng/ml)-% pSTAT5 CD4 [1]: 0.177 ng/ml | EC50 (ng/ml)-% pSTAT5 CD8 [1]: 0.17 ng/ml | EC50 (ng/ml)-% pSTAT5 CD56bright [1]: 0.11 ng/ml | EC50 (ng/ml)-% pSTAT5 CD56dim ([1]; CD56dim): 0.26 ng/ml | EC50 (ng/ml)-% pSTAT5 Treg [1]: 0.08 ng/ml | EC50 (ng/ml)-MFI CD3 donor1 [1]: 4.0 ng/mL | EC50 (ng/ml)-MFI CD3 donor2 [1]: 5.22 ng/mL | EC50 (ng/ml)-MFI Treg donor1 [1]: 0.6 ng/mL | EC50 (ng/ml)-MFI Treg donor2 [1]: 0.71 ng/mL | EC50 (ng/ml)-MFI CD4 donor1 [1]: 3.6 ng/mL | EC50 (ng/ml)-MFI CD4 donor2 [1]: 5.8 ng/mL | EC50 (ng/ml)-MFI CD8 donor1 [1]: 3.5 ng/mL | EC50 (ng/ml)-MFI CD8 donor2 [1]: 5.5 ng/mL | EC50 (ng/ml)-MFI CD56bright donor1 [1]: 0.49 ng/mL | EC50 (ng/ml)-MFI CD56bright donor2 [1]: 0.96 ng/mL | EC50 (ng/ml)-MFI CD56dim donor1 [1]: 1.4 ng/mL | EC50 (ng/ml)-MFI CD56dim donor2 [1]: 3.7 ng/mL | duration of in-vivo STAT5 phosphorylation activity in NK and CD8 cells ([2]; C57BL/6 mice, single i.v. 0.3 mg/kg): extremely short-lived | time by which the STAT5 phosphorylation signal in lymphocytes is lost ([2]; mice, reference): around 24 hours | half-life [3, 4]: less than 1 hours | plasma levels following administration ([3]; mice, single i.v. dose): rapid drop in plasma levels; also recorded: rapidly cleared

mono-mPEG-SBA40K-IL-15 [Conjugate 1]
EC50 (ng/ml)-% pSTAT5 CD3 donor1 [1]: 0.75 ng/ml | EC50 (ng/ml)-% pSTAT5 CD3 donor2 [1]: 1.1 ng/ml | EC50 (ng/ml)-% pSTAT5 Treg donor1 [1]: 0.23 ng/ml | EC50 (ng/ml)-% pSTAT5 Treg donor2 [1]: 0.37 ng/ml | EC50 (ng/ml)-% pSTAT5 CD4 donor1 [1]: 0.75 ng/ml | EC50 (ng/ml)-% pSTAT5 CD4 donor2 [1]: 0.83 ng/ml | maximum pSTAT5 response compared with IL-15 ([1]; CD8 and CD56 bright NK cells): achieves the same maximum response as conventional IL-15 | EC50 (ng/ml)-% pSTAT5 CD8 donor1 [1]: 0.76 ng/ml | EC50 (ng/ml)-% pSTAT5 CD8 donor2 [1]: 1.54 ng/ml | EC50 (ng/ml)-% pSTAT5 CD56bright donor1 [1]: 1.4 ng/ml | EC50 (ng/ml)-% pSTAT5 CD56bright donor2 [1]: 1.9 ng/ml | EC50 (ng/ml)-% pSTAT5 CD56dim donor1 [1]: 2.9 ng/ml | EC50 (ng/ml)-% pSTAT5 CD56dim donor2 [1]: 5.9 ng/ml | less potent than IL-15 in engaging CD8 cells ([1]; Example 22, % pSTAT5): 5.5 X | less potent than IL-15 in engaging CD56 bright NK cells ([1]; Example 22, % pSTAT5): 15 X | IL-15 signaling (STAT5 phosphorylation) in huPBMCs ([1]; NK cell subsets CD56bright, CD56dim): potently induces such signaling | EC50 (ng/ml) pSTAT5 CD56bright NK [1]: 2.4 ng/ml | EC50 (ng/ml)-% pSTAT5 CD3 [1]: 0.75 ng/ml | EC50 (ng/ml)-% pSTAT5 CD4 [1]: 0.75 ng/ml | EC50 (ng/ml)-% pSTAT5 CD8 [1]: 0.76 ng/ml | EC50 (ng/ml)-% pSTAT5 CD56bright [1]: 1.4 ng/ml | EC50 (ng/ml)-% pSTAT5 CD56dim ([1]; CD56dim): 2.9 ng/ml | EC50 (ng/ml)-% pSTAT5 Treg [1]: 0.23 ng/ml | IL-15 more potent than conjugate in inducing CD3, CD4, CD8 and Treg cells ([1]; Table 7 data): 3-4 fold | IL-15 more potent than conjugate in inducing CD56bright and CD56dim cells ([1]; Table 7 data): approximately 12 fold | IL-15 more potent than conjugate, CD3 and CD4 induction ([1]; pSTAT5 EC50, CD3 and CD4): 4-6 fold | IL-15 more potent than conjugate, CD56 induction ([1]; pSTAT5 EC50, CD56): ~10 fold | IL-15 more potent than conjugate, Treg and CD8 induction ([1]; pSTAT5 EC50, Treg and CD8): 3-5 fold | EC50 (ng/ml)-MFI CD3 donor1 [1]: 22.1 ng/mL | EC50 (ng/ml)-MFI CD3 donor2 [1]: 108.8 ng/mL | EC50 (ng/ml)-MFI Treg donor1 [1]: 2.5 ng/mL | EC50 (ng/ml)-MFI Treg donor2 [1]: 2.9 ng/mL | EC50 (ng/ml)-MFI CD4 donor1 [1]: 23.54 ng/mL | EC50 (ng/ml)-MFI CD4 donor2 [1]: 106.5 ng/mL | EC50 (ng/ml)-MFI CD8 donor1 [1]: 16.73 ng/mL | EC50 (ng/ml)-MFI CD8 donor2 [1]: 99.76 ng/mL | EC50 (ng/ml)-MFI CD56bright donor1 [1]: 7.8 ng/mL | EC50 (ng/ml)-MFI CD56bright donor2 [1]: 12.4 ng/mL | EC50 (ng/ml)-MFI CD56dim donor1 [1]: 23.25 ng/mL | EC50 (ng/ml)-MFI CD56dim donor2 [1]: 73.05 ng/mL | pSTAT5 expression in CD4 T cells ([2]; Balb/c mice, single i.v. 0.03 or 0.3 mg/kg, compared to CD8 and NK cells): relatively less increase in pSTAT5 expression | pSTAT5 percent positivity within NK cells ([2]; balb/c mice, single injection 0.03 and 0.3 mg/kg): induces robust and sustained pSTAT5 signaling in NK cells | pSTAT5 percent positivity within CD8 T cells ([2]; balb/c mice, single injection 0.03 and 0.3 mg/kg, 120 h): induces sustained pSTAT5signaling in CD8 T cells | half-life ([3]; Balb/c mice, single i.v. 10-1000 μg/kg (Example 23)): approximately 14 hours | half-life [3, 4]: approximately 12 hours
